What all share (experiment): NCI anticancer screen, dose series, 48 h
The test system of assay [1] is NCI-H23 lung.
Assay [2] deals with UACC-257 melanoma.
The test system of assay [3] is SK-MEL-28 melanoma.
The test system of assay [4] is UO-31 renal.
Assay [5] has as its system TK-10 renal.
Assay [6] has as its system K-562 leukemia.
In assay [7] the test system is RXF 393 renal.
Assay [8] concerns SN12C renal.
The test system of assay [9] is NCI-H226 lung.
Assay [10] concerns OVCAR-3 ovarian.
Assay [11] concerns LOX IMVI melanoma.
Assay [12] has as its system CAKI-1 renal.
Assay [13] concerns NCI-H522 lung.

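Five compound concentrations were applied to cells in 96-well plates for 48 hours; endpoints were derived by simple linear interpolation of the resulting dose-response curve. GI50 is the concentration that inhibits growth by half. TGI marks complete inhibition of growth.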

As to `Cc1ccc(C)n2c1nc1ccccc12`, the TGI in assay [1], in [2], in assay [3], in assay [4], in [5] and in assay [6] was greater than 100 µM each time. Moreover, the TGI in assay [7], in assay [8], in [9] and in assay [10] was greater than 100 µM in each case.
On to `Nc1ncnc2c1ncn2C1CCC(CP(=O)(O)O)C1` (stereo unspecified), for which the TGI in assay [1], in assay [2], in assay [3], in assay [4], in [5] and in assay [7] was greater than 100 µM in each case. Besides, the TGI in [8], in assay [9], in assay [11] and in [10] was greater than 100 µM throughout.
Consider `O=C1NN(Cc2ccccc2)C(=O)N2CCC[C@@H]12`, for which the TGI in assay [1], in [2], in assay [3], in assay [12], in assay [5] and in assay [7] was greater than 100 µM each time. Further, the TGI in assay [8], in assay [9], in assay [11] and in assay [10] was greater than 100 µM throughout.
Take `COc1cccc(/C=C2\S/C(=N/Nc3nc(C)c(C)s3)NC2=O)c1O`: the TGI in assay [1], in assay [2], in [3], in [4], in [12] and in [5] was greater than 100 µM throughout. The TGI in assay [7], in assay [8], in assay [9], in [11] and in [10] was greater than 100 µM in each case.
With `Cn1cc2ccccc2c1-c1nc(F)nc(Oc2ccc3c(c2)CC[C@@H]2C3CC[C@@]3(C)C2C[C@H](O)[C@@H]3O)n1` (stereo partly specified), the TGI turned out to be 42.9 µM in [1]; 81.6 µM in assay [2]; 27.2 µM in [13]; 38.9 µM in assay [3]; 32.3 µM in assay [4]; 34.8 µM in assay [12]. For the same compound, the TGI in assay [5] worked out at 54.6 µM; in assay [6] it was 42.8 µM; in assay [7], 66.6 µM; in assay [8], 31.6 µM; in [10] it was 78.8 µM.
Take `CC(=O)NCC1OC2COC(c3ccccc3)OC2C(NC(=O)c2ccccc2)C1OC(=O)c1ccccc1` (stereo unspecified): the TGI in assay [1], in assay [2], in [3], in [4], in [12] and in [5] was greater than 100 µM each time. Moreover, the TGI in assay [6], in assay [7], in assay [8], in assay [9], in assay [11] and in [10] was greater than 100 µM in each case.
Turning to `N[C@@H]1CCN(c2c(F)cc3c(=O)c(C(=O)O)cn4c3c2Oc2cc3c(ccc5ccccc53)cc2-4)C1`, the TGI in assay [1] is greater than 100 µM; in assay [13], 31.6 µM; in assay [3] it was greater than 93.2 µM; in assay [4], greater than 100 µM; in [12], greater than 77.5 µM; in assay [6], greater than 23.3 µM. Also, the TGI in assay [7] is greater than 100 µM; in assay [8], greater than 100 µM; in [9] it was greater than 100 µM; in [11], greater than 63.7 µM; in assay [10] it was 34.5 µM. Besides, the GI50 in assay [7] was 3.78 µM.
`CC(=O)OCC(=O)OC[C@H](OCc1ccccc1)[C@@H]1[C@H](OC(C)=O)C(=O)N1Cc1ccccc1`: the TGI in assay [1], in [2], in [3], in assay [4], in [5] and in assay [6] was greater than 100 µM throughout. The TGI in [8], in [9], in assay [11] and in assay [10] was greater than 100 µM in each case.
On to `O=Cc1cc(C(=O)OCc2ccccc2)n(S(=O)(=O)c2ccccc2)c1`, for which the TGI is 60.9 µM in assay [1]; 64 µM in assay [2]; greater than 100 µM in [13]; 30.2 µM in [3]; 44.1 µM in assay [4]; 55.2 µM in [12]. The TGI in [5] is 69.6 µM; in assay [6], greater than 100 µM; in assay [7], 94.9 µM; in [8], 66.1 µM; in [11] it was 62.5 µM; in [10], 35.6 µM.
For the compound `O=C(c1ccccc1)N1CCC(CC2(c3cc4ccccc4[nH]3)OCCO2)CC1`, the TGI was greater than 100 µM in assay [1]; 51.9 µM in assay [2]; 37.4 µM in assay [3]; greater than 100 µM in [4]; greater than 100 µM in assay [12]; greater than 100 µM in assay [5]. In addition, the TGI in [6] is 37.6 µM; in [7] it was greater than 100 µM; in assay [8] it was greater than 100 µM; in assay [9], greater than 100 µM; in assay [11], 35.6 µM; in assay [10] it was greater than 100 µM.
Regarding `CCOP(=O)(OCC)C(NC(=O)C(C(F)(F)F)C(F)(F)F)c1ccccc1` (stereo unspecified), the TGI in assay [1], in [2], in [3], in [4], in assay [12] and in assay [5] was greater than 100 µM in each case. The TGI in [6], in [7], in assay [8], in assay [11] and in [10] was greater than 100 µM in each case.

(Values after PubChem BioAssay (NCI).)
